Source: PubChem BioAssay (NCI)
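Here, GI50 denotes the concentration required for 50% inhibition of growth. The concentration for full growth arrest is given as TGI.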

Assays:
Assay in all cases: NCI-60 cell line screen, 384-well format
[1] = system: MDA-MB-435 melanoma
[2] = system: SK-MEL-2 melanoma
[3] = system: NCI-H522 lung
[4] = system: COLO 205 colon
[5] = system: IGROV1 ovarian
[6] = system: A549 NSCLC
[7] = system: SF-268 CNS
[8] = system: HCT-116 colon
[9] = system: A498 renal
[10] = system: EKVX NSCLC
[11] = system: HCC-2998 colon
[12] = system: CAKI-1 renal
[13] = system: DU-145 prostate

## c1cn2cc(-c3ccc4cn[nH]c4c3)nc(Nc3ccc(N4CCOCC4)cc3)c2n1
[1]
  GI50: 22.6 µM
  TGI: > 75.5 µM
[2]
  GI50: 1.67 µM
  TGI: 8.99 µM
[3]
  GI50: 3.46 µM
  TGI: 12.8 µM
[4]
  GI50: 37.8 µM
  TGI: > 100 µM
[5]
  GI50: 14.1 µM
  TGI: 37.9 µM
[6]
  GI50: 17.1 µM
  TGI: > 53.8 µM
[7]
  GI50: 4.45 µM
  TGI: 16.9 µM
[8]
  GI50: 15 µM
  TGI: 34.3 µM
[9]
  GI50: 3.26 µM
  TGI: 16.6 µM
[10]
  GI50: 9.48 µM
  TGI: 25.1 µM
[11]
  GI50: 17.5 µM
  TGI: > 85.7 µM
[12]
  GI50: 11.9 µM
  TGI: 25.3 µM
[13]
  GI50: 10 µM
  TGI: 22.7 µM

## C=CC(=O)N[C@H]1CCOC[C@H]1Nc1ncc2cc(-c3c(Cl)c(OC)cc(OC)c3Cl)ccc2n1
[1]
  GI50: > 64.3 µM
  TGI: > 100 µM
[2]
  GI50: 15.9 µM
  TGI: 30.4 µM
[3]
  GI50: 13.9 µM
  TGI: 32.2 µM
[4]
  GI50: 18.2 µM
  TGI: 46.1 µM
[5]
  GI50: 17.9 µM
  TGI: 63.5 µM
[6]
  GI50: 17.3 µM
  TGI: 74.2 µM
[7]
  GI50: 4.16 µM
  TGI: 23.9 µM
[8]
  GI50: 15.1 µM
  TGI: 33.6 µM
[9]
  GI50: 10.6 µM
  TGI: 40.2 µM
[10]
  GI50: 12.3 µM
  TGI: 39.6 µM
[11]
  GI50: 16.2 µM
  TGI: 32.5 µM
[12]
  GI50: 12 µM
  TGI: 82.4 µM
[13]
  GI50: 27.4 µM
  TGI: > 100 µM
